Assays:
[1] = biological target: ATP-binding cassette sub-family C member 2 (Rattus norvegicus, UniProt Q63120); experiment: TP_TRANSPORTER: inhibition of CDF uptake (CDF: 10 uM, Probenecid: 260 uM) in Mrp2-expressing Sf9 cells; assay type: functional; details: sf9, 260 µM
[2] = biological target: ATP-binding cassette sub-family C member 3 (Rattus norvegicus, UniProt O88563); experiment: TP_TRANSPORTER: inhibition of CDF uptake (CDF: 10 uM, Probenecid: 260 uM) in Mrp3-expressing Sf9 cells; assay type: functional; details: sf9, 260 µM
ATP-binding cassette sub-family C member 3, sequence (O88563 whole entry): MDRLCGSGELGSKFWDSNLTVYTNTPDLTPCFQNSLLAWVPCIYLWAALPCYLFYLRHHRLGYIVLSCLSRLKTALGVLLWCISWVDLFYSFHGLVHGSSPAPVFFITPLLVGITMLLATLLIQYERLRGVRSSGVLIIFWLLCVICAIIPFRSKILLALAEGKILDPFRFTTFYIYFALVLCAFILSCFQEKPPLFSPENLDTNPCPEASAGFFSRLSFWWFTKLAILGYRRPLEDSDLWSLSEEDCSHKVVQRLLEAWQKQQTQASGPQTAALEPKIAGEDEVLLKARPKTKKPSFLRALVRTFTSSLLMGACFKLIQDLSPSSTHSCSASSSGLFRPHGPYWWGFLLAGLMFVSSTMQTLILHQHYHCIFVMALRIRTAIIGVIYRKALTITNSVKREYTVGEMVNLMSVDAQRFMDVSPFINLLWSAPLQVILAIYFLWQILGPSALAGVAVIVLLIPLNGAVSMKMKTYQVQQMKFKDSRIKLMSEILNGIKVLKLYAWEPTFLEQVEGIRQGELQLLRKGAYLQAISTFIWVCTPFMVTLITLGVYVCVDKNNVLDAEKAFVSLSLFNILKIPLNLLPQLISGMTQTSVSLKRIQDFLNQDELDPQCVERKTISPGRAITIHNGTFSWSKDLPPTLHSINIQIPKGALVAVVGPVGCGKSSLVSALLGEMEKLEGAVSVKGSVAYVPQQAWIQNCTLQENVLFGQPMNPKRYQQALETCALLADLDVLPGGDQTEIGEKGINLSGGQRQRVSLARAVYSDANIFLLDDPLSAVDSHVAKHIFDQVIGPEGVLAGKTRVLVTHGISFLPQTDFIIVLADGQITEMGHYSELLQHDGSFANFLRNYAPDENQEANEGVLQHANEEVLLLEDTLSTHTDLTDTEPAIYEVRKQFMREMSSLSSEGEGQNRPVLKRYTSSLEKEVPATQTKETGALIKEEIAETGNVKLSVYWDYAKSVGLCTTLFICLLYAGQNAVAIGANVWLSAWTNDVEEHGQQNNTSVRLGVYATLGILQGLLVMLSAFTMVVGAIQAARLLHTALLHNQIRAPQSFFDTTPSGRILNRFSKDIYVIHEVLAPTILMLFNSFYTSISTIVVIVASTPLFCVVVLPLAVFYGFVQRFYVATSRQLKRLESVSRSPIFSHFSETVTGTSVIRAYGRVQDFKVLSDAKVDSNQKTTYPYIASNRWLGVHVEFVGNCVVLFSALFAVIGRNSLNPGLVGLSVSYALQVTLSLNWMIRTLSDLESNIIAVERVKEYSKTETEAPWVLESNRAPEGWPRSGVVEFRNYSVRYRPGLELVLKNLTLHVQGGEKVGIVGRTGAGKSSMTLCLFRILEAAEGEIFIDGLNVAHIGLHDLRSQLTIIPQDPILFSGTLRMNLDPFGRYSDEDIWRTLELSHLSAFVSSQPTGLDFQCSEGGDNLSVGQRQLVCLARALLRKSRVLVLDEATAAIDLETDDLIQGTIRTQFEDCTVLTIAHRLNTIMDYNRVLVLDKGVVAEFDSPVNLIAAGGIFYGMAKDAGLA

ATP-binding cassette sub-family C member 2, sequence (Q63120 whole entry): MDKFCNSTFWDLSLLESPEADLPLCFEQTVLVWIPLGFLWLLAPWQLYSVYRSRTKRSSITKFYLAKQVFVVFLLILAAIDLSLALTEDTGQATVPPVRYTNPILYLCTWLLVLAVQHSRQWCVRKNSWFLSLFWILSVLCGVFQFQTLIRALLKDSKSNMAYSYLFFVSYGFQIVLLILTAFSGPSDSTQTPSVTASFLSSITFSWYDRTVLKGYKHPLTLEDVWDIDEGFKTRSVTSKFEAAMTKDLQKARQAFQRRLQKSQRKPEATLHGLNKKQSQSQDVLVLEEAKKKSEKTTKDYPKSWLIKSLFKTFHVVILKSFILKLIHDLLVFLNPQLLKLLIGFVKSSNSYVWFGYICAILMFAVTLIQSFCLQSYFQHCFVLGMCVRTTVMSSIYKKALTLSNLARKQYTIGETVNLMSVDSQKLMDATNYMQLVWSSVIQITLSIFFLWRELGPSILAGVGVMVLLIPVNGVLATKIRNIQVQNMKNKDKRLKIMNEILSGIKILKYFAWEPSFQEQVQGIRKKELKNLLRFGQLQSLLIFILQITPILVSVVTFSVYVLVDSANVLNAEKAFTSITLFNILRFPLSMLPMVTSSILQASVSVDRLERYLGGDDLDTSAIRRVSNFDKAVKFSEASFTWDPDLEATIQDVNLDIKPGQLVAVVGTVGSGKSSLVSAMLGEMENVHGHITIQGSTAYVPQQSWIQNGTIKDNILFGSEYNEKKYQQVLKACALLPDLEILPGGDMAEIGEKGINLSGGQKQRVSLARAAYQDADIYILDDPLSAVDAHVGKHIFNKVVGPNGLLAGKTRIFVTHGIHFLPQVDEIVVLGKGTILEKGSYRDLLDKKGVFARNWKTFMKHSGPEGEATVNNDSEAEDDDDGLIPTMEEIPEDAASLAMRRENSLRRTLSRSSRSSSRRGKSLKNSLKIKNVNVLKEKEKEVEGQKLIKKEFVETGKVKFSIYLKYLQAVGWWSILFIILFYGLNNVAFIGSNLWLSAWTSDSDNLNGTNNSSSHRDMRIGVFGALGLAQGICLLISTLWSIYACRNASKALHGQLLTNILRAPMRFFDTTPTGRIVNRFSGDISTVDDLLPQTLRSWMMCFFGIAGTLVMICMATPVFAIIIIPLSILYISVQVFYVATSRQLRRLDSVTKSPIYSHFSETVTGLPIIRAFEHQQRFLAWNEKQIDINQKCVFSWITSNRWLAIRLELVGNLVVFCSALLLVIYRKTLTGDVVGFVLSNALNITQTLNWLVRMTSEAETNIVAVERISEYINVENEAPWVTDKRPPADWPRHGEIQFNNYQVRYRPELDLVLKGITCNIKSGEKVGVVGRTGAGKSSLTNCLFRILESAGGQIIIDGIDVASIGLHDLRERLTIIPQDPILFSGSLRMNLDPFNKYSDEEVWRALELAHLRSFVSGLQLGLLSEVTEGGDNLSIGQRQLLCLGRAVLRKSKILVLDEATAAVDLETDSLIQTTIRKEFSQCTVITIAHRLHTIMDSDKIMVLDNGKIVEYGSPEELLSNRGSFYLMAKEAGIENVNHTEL

**Q.** Which results are given for `CCCN(CCC)S(=O)(=O)c1ccc(C(=O)O)cc1` [PROBENECID]?
**A.** Activity [1]: inhibitor [(at a rough estimate) 40 % of control]; Activity [2]: inhibitor [(at a rough estimate) 35 % of control]

Source: ChEMBL document CHEMBL2074279, “Pharmacokinetics of 5 (and 6)-carboxy-2',7'-dichlorofluorescein and its diacetate promoiety in the liver” (J Pharmacol Exp Ther, 2003)
